Like-named read-outs stand apart in the source and are kept apart here.
How the values were obtained:
CFU-GM lineage = assay: Bone marrow toxicity, CFU-GM; type: cell-based, human; settings: human, Cytotoxicity IC50, bone marrow CFU-GM, three separate donors
[1] = HepG2 cytotoxicity, 3 day, glucose/galactose media; type: cell-based; settings: human
HepG2 cells = settings: HepG2, 14 day; for mitochondrial toxicity: at 10 μM
BFU-E lineage = assay: Bone marrow toxicity, BFU-E; type: cell-based, human; settings: human, Cytotoxicity IC50, bone marrow BFU-E, three separate donors
[2] = tested on: colony-forming unit-granulocyte, macrophage (CFU-GM) lineage; assay: Bone marrow toxicity, CFU-GM; type: cell-based, human; settings: positive control, at the concentration tested
[3] = tested on: burst forming unit-erythroid (BFU-E) lineage; assay: Bone marrow toxicity, BFU-E; type: cell-based, human; settings: positive control, at the concentration tested
in vitro [4] = settings: African green monkey
[5] = HepG2 cytotoxicity, 14 day, glucose/galactose media; type: cell-based; settings: human
[6] = Stability in human intestinal microsomes
[7] = for Clint(liver): scaled from Clint(mic)
in vitro [8] = settings: human, microsomes
[9] = tested on: HCV GT1b/3a chimeric replicon; assay: Chimeric replicon GT1b/3a in Huh-7 cells; type: cell-based; settings: Hepatitis C virus, Huh-7, read-out: EC90 GT1b/3a
[10] = target: T1, human ether-à-go-go-related gene (hERG) potassium channels (Homo sapiens, UniProt Q12809); assay: hERG whole-cell patch clamp in CHO cells; type: cell-based
[11] = Cardiac toxicity in stem cell-induced ventricular cardiomyocytes; settings: human
[12] = Stability in simulated gastric fluid; type: physicochemical; settings: 37 °C
[13] = tested on: HCV GT1b/5a chimeric replicon; assay: Chimeric replicon GT1b/5a in Huh-7 cells; type: cell-based; settings: Hepatitis C virus, Huh-7, read-out: EC90 GT1b/5a
HCV GT1b-WT replicon = assay: GT1b stably transfected replicon in Huh-7 cells; type: cell-based; settings: Hepatitis C virus; for EC50: Huh-7, read-out: EC50 GT1b-WT; for EC90: Huh-7, read-out: EC90 GT1b-WT
HCV GT2a = assay: GT2a infectious assay in Huh-7 cells; type: cell-based; settings: Hepatitis C virus, Huh-7, read-out: EC90 GT2a
[14] = tested on: Salmonella typhimurium (TA98, TA100, TA1535, and TA1537) and Escherichia coli WP2 uvrA (pKM101); assay: Mini Ames reverse mutation study; settings: with and without S9 mix
[15] = tested on: HCV GT1b/4a chimeric replicon; assay: Chimeric replicon GT1b/4a in Huh-7 cells; type: cell-based; settings: Hepatitis C virus, Huh-7, read-out: EC90 GT1b/4a
[16] = Stability in simulated intestinal fluid; settings: 37 °C
[17] = target: T1, human ether-à-go-go-related gene (hERG) potassium channels; settings: cited from earlier work
[18] = tested on: Salmonella typhimurium (TA98, TA100, TA1535, and TA1537) and Escherichia coli WP2 uvrA (pKM101); settings: cited from earlier work
[19] = In vitro nephrotoxicity in HK-2 cells, 3 day assay; settings: human
DNA polymerase β = DNA polymerase β (Homo sapiens, UniProt P06746); assay: Human DNA polymerase β inhibition; type: biochemical
DNA polymerase γ = target: T2, DNA polymerase γ (Homo sapiens, UniProt P54098); assay: Human DNA polymerase γ inhibition; type: biochemical
T2 sequence (P54098 1-1239): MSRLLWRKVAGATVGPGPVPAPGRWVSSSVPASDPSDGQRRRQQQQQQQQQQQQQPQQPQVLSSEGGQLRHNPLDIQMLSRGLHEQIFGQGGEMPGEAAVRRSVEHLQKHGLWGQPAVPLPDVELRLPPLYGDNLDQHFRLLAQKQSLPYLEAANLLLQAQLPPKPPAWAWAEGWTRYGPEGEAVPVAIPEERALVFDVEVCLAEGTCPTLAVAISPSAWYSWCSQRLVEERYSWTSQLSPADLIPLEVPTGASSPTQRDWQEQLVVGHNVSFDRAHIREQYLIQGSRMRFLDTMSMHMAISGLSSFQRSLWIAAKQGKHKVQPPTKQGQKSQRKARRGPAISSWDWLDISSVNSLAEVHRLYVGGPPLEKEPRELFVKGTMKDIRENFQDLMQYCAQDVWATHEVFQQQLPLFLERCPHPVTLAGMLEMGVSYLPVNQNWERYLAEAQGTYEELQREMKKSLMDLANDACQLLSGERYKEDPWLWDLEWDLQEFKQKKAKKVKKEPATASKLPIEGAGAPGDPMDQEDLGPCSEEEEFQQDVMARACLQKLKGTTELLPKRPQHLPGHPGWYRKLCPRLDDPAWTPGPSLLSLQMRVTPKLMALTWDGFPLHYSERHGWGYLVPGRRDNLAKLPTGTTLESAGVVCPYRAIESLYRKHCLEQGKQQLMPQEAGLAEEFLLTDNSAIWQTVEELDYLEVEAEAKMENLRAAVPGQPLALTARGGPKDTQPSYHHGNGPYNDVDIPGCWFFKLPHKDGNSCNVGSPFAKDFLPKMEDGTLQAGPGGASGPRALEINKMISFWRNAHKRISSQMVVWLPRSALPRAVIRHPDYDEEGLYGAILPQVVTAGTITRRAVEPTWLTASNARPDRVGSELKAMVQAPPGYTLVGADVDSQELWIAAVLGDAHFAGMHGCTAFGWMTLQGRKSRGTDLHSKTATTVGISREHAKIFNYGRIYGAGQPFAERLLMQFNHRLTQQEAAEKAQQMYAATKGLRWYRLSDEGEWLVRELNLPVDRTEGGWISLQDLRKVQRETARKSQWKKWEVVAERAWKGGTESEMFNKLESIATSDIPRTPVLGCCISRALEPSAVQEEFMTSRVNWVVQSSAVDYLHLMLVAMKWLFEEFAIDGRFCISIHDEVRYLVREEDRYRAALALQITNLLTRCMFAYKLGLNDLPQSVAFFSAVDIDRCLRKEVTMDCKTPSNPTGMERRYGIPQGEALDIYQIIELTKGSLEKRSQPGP

T1 sequence (Q12809 whole entry): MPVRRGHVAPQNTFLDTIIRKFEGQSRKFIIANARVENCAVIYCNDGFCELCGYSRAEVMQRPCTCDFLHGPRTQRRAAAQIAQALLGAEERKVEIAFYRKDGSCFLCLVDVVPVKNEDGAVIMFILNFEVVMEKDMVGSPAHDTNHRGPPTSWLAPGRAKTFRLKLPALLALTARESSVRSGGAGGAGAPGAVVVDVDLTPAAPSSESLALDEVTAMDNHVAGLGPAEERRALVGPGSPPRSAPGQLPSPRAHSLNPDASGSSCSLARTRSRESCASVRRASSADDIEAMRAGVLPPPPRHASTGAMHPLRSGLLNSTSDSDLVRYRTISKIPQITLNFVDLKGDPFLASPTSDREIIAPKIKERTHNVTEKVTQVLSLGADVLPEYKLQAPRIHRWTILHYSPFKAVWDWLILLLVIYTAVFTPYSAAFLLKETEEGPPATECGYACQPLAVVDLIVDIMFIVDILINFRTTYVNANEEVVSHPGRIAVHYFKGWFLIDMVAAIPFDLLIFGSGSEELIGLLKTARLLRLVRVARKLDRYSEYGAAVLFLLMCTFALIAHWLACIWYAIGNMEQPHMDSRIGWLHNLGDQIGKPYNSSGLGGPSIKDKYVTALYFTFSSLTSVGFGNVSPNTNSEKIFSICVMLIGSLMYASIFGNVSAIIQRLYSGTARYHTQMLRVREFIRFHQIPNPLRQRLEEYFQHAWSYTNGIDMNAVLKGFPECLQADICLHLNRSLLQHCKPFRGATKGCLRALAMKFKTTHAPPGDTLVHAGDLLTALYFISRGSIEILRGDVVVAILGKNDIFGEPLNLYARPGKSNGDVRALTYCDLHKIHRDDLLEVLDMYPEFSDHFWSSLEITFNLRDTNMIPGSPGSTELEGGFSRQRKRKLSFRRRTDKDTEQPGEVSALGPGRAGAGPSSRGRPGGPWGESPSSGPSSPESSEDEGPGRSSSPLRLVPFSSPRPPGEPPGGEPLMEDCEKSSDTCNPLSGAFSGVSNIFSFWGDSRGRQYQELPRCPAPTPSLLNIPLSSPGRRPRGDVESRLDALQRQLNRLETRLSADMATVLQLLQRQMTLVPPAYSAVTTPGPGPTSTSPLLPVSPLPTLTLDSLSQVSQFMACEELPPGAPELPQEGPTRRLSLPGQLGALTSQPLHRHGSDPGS

## CC(C)OC(=O)[C@H](C)NP(=O)(OC[C@H]1O[C@@H](n2ccc(=O)[nH]c2=O)[C@](F)(Br)[C@H]1O)Oc1ccccc1 (mixture of isomers) [Compound 14]
CFU-GM lineage
  IC50: > 100 µM
[1]
  IC50 at 3 days: > 100 µM
HepG2 cells; 50 μM
  MtDNA content % of control (range): 100 (99–104) % of control
HepG2 cells
  measurable mitochondrial toxicity (none up to): > 50 µM
BFU-E lineage
  IC50: > 100 µM

## Cc1cn([C@H]2C[C@H](N=[N+]=[N-])[C@@H](CO)O2)c(=O)[nH]c1=O [AZT, reference compound]
[2]
  toxicity in myelomonocytic progenitors: high toxicity
[3]
  toxicity in erythroid progenitors: high toxicity

## O=c1ccn([C@@H]2O[C@H](CO)[C@@H](O)[C@]2(F)Br)c(=O)[nH]1 [Compound 12, 1-((2R, 3S, 4R, 5R)-3-Bromo-3-fluoro-4-hydroxy-5-(hydroxymethyl)tetrahydrofuran-2-yl)pyrimidine-2,4(1H,3H)-dione]
CFU-GM lineage
  IC50: > 100 µM
In vitro [4]
  CC50: > 100 µM
HepG2 cells; 50 μM
  MtDNA content % of control (range): 72 (63–83) % of control
  lactic acid production (% of control): 69 ± 14 % of control
HepG2 cells
  measurable mitochondrial toxicity (none up to): > 50 µM

## CC(C)OC(=O)[C@H](C)N[P@@](=O)(OC[C@H]1O[C@@H](n2ccc(=O)[nH]c2=O)[C@@](F)(Br)[C@@H]1O)Oc1ccccc1 [Compound 27, Isopropyl ((R)-(((2R,3R,4S,5R)-4-Bromo-5-(2,4-dioxo-3,4-dihydro-pyrimidin-1(2H)-yl)-4-fluoro-3-hydroxytetrahydrofuran-2-yl)-methoxy)(phenoxy)phosphoryl)-L-alaninate]
[5]
  IC50 at 14 days: > 100 µM
[6]
  half-life: 132 min
CFU-GM lineage
  IC50: > 100 µM
[7]
  Clint(liver): 67.8 mL/min/kg
In vitro [8]
  half-life: 18.4 min
  microsomal CLint: 75.3 µL/min/mg
[9]
  EC90: 1600 ± 20 nM
[10]
  IC50: > 30 µM
[11]
  IC50: > 100 µM
[12]
  simulated gastric fluid (24 h), loss: ~2% loss
[13]
  EC90: 800 ± 1500 nM
[1]
  IC50 at 3 days: > 100 µM
In vitro [4]
  CC50: > 100 µM
HepG2 cells; 50 μM
  MtDNA content % of control (range): 65 (65–65) % of control
  lactic acid production (% of control): 100 ± 6.2 % of control
HCV GT1b-WT replicon
  EC50: 92 nM
HCV GT2a
  EC90: 830 ± 10 nM
[14]
  mutagenicity (mini Ames): negative for mutagenicity
[15]
  EC90: 870 ± 230 nM
[16]
  stability in simulated intestinal fluid (24 h): stable
BFU-E lineage
  IC50: > 100 µM

## CC(C)OC(=O)[C@H](C)N[P@](=O)(OC[C@H]1O[C@@H](n2ccc(=O)[nH]c2=O)[C@@](F)(Br)[C@@H]1O)Oc1ccccc1 [Compound 28, Isopropyl ((S)-(((2R,3R,4S,5R)-4-Bromo-5-(2,4-dioxo-3,4-dihydro-pyrimidin-1(2H)-yl)-4-fluoro-3-hydroxytetrahydrofuran-2-yl)-methoxy)(phenoxy)phosphoryl)-L-alaninate]
[5]
  IC50 at 14 days: > 100 µM
[6]
  half-life: > 145 min
[7]; human liver microsomes
  remaining after 60 min: 3%
[7]
  Clint(liver): 63.2 mL/min/kg
In vitro [8]
  half-life: 19.7 min
  microsomal CLint: 70.2 µL/min/mg
[10]
  IC50: > 30 µM
[11]
  IC50: > 100 µM
[12]
  simulated gastric fluid (24 h), loss: ~2% loss
[13]
  EC90: 83 ± 20 nM
[1]
  IC50 at 3 days: > 100 µM
In vitro [4]
  CC50: > 100 µM
HepG2 cells; 12.5 μM
  MtDNA content % of control (range): 86 (79–93) % of control
HepG2 cells; 25 μM
  MtDNA content % of control (range): 110 (110–110) % of control
HepG2 cells; 50 μM
  MtDNA content % of control (range): 150 (150–150) % of control
HepG2 cells
  mitochondrial toxicity: no mitochondrial toxicity
HCV GT1b-WT replicon
  EC90: 74 ± 2 nM
HCV GT2a
  EC90: 77 nM
[14]
  mutagenicity (mini Ames): negative for mutagenicity
[15]
  EC90: 130 ± 3 nM
[16]
  stability in simulated intestinal fluid (24 h): stable

## CC(C)OC(=O)[C@H](C)N[P@](=O)(OC[C@H]1O[C@@H](n2ccc(=O)[nH]c2=O)[C@](C)(F)[C@@H]1O)Oc1ccccc1 [SOF, sofosbuvir, reference compound]
[17]
  hERG channel inhibition: free from hERG channel inhibition
[18]
  mutagenicity: negative for mutagenicity
[9]
  EC90: 370 ± 10 nM
[11]
  IC50: > 100 µM
[19]
  IC50 at 3 days: > 300 µM
HepG2 cells; 12.5 μM
  MtDNA content % of control (range): 96 (90–100) % of control
HepG2 cells; 50 μM
  MtDNA content % of control (range): 130 (120–150) % of control
HCV GT1b-WT replicon
  EC50: 34 nM
  EC90: 150 ± 30 nM

## Nc1ccn([C@H]2CC[C@@H](CO)O2)c(=O)n1 [ddC, β-D-2′,3′-dideoxycytidine, reference compound]
HepG2 cells; 10 μM
  MtDNA content % of control (range): 7.3 % of control
HepG2 cells
  mitochondrial toxicity: highly toxic

## Cc1cn([C@H]2CC[C@@H](COP(=O)(O)OP(=O)(O)OP(=O)(O)O)O2)c(=O)[nH]c1=O [ddTTP]
DNA polymerase β
  IC50: 8.4 ± 0.11 µM
DNA polymerase γ
  IC50: 100 ± 70 nM

## O=C(O)Cc1ccccc1Nc1c(Cl)cccc1Cl [diclofenac, reference compound]
In vitro [8]
  microsomal CLint: 129 µL/min/mg

— PMC7722249 (Journal of medicinal chemistry, 2019)
